What all share (assay type): cell-based
In experiment [1] the target is T1, CDK1 (Homo sapiens, UniProt P06493).
T1 construct: endogenous in cells; host or cells: KYSE520
As to the kind of experiment: Phospho-Rb HTRF measurement in KYSE520 cells (inhibition of CDK1). Conditions: CDK2-dependent OVCAR3 vs CDK2-independent but CDK1-dependent KYSE520 cell line. As to the method: Phosphorylation of RB protein at S780 and S807/811 were measured using HTRF phospho-RB cellular kits (Cat #64RBS780PEG and 64RBS807PEG) from Cisbio.
On Day 1, OVCAR3 or KYSE520 cells were seeded into 96-well tissue-culture treated plates at 20,000 cells/well in 200 μL and incubated overnight at 37° C. in CO2 atmosphere. On Day 2, the cells were treated with test compounds at concentrations from 0.3 to 10,000 nM using HP D300 digital dispenser. Twenty-four hours after compound treatment, cell culture media was removed by flicking the plate and tapping the plate against clean paper towel. Immediately 30 μL 1× lysis buffer was supplemented from the kit and the plate was incubated at room temperature on shaker for 30 min. After homogenization by pipetting up and down, 8 μL cell lysate from 96-well cell culture plate was transferred to 384-well small volume white detection plate. 2 μL premixed detection solution was added and the plate was covered with sealer. To prepare the detection solution, d2 conjugated-phospho-RB antibody and Eu-cryptate conjugated phosphor-RB antibody were diluted into detection buffer following manufacturer's instruction. Detection plates were incubated for 4 h at room temperature and read on ClarioStar (BMG Labtech) in TR-FRET mode (665 nM and 620 nM). The TR-FRET ratio (665 nM/620 nM) was plotted against the compound concentration and normalized to DMSO controls. Half maximal inhibition concentration (IC50) values are calculated with a four-parameter logistic fit using GraphPad Prism (version 8; La Jolla, CA).
Compound 5 was not tested in the KYSE520 cell line.

In experiment [2] the target is T2, CDK2 (Homo sapiens, UniProt P24941). As to the kind of experiment: NanoBRET CDK2 engagement assay. Details: expressed in transfected cells. Conditions: OVCAR3 cells with stable CDK2-Luciferase vector, 24 hours treatment. The gist of the method:
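OVCAR3 cells stably expressing CDK2-luciferase, in Opti-MEM with 1% FBS, treated 24 h at 37° C with compound from 3 μM in ½-log steps to 0.3 nM; NanoBRET tracer present for final 2 h. Donor/acceptor emission read; engagement normalized to DMSO as 100% signal, IC50 by curve fit.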

The target of experiment [3] is T2, CDK2. As to the kind of experiment: Phospho-Rb HTRF measurement in OVCAR3 cells (inhibition of CDK2). Details: High-Throughput Measurement of Cellular Endogenous CDK2; endogenous in cells; host or cells: OVCAR3. Conditions: pRB(S807/811) assay, 24 h compound treatment. (In general: Time-resolved FRET reads energy transfer from a long-lived donor to a nearby acceptor.)

The target of experiment [4] is T2, CDK2. The experiment can be described thus: CDK2 HTRF assay (cellular endogenous CDK2 level). Details: High-Throughput Measurement of Cellular Endogenous CDK2; endogenous in cells; host or cells: OVCAR3. Conditions: OVCAR-3; OVCAR3 cells, 24 hours, 0.3 to 10,000 nM; read-out: max degradation of CDK2. The gist of the method:
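OVCAR3 cells treated 24 h with compounds at 0.3–10,000 nM, then lysed and total CDK2 measured by HTRF using d2- and Eu-cryptate-labelled CDK2 antibodies (TR-FRET 665/620 nm ratio). Signal normalized to DMSO controls; DC50 from four-parameter logistic fit.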

The results in this text go back to patent US20250018049A1, “COMPOUNDS FOR DEGRADING CYCLIN-DEPENDENT KINASE 2 VIA UBIQUITIN PROTEOSOME PATHWAY” (NIKANG THERAPEUTICS, INC., priority 2020, published 2025).

T1 sequence (P06493 whole entry): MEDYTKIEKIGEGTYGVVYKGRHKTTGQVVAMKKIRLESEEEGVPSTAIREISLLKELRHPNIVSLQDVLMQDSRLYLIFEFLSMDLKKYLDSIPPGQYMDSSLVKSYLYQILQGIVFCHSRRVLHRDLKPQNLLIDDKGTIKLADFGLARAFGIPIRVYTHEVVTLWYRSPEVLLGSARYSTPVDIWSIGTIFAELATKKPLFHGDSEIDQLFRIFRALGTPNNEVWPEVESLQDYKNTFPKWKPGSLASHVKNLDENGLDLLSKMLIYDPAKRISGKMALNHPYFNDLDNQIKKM
T1 sequence (P14635 whole entry partner): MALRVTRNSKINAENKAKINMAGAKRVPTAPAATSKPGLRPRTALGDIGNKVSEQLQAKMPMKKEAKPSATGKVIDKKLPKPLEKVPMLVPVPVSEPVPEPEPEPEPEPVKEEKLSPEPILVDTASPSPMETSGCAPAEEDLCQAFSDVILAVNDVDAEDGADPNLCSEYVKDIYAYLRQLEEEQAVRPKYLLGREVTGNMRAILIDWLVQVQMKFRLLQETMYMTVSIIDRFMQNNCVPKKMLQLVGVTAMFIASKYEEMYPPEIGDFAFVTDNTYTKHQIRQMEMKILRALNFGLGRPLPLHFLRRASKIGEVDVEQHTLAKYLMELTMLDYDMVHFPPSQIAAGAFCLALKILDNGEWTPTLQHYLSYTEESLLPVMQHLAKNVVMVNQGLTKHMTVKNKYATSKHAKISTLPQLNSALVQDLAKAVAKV

In the case of `O=C1CCC(N2Cc3cc(N4CC(N5CCC(Oc6cccc(S(=O)(=O)N7CCC(Nc8ncc9ccc(=O)n(C%10CCCC%10)c9n8)CC7)c6)CC5)C4)ccc3C2=O)C(=O)N1` (centres unmarked) [Compound 28, 3-(5-(3-(4-(3-((4-((8-cyclopentyl-7-oxo-7,8-dihydropyrido[2,3-d]pyrimidin-2-yl)amino)-piperidin-1-yl)sulfonyl)phenoxy)piperidin-1-yl)-azetidin-1-yl)-1-oxoisoindolin-2-yl)piperidine-2,6-dione], the “times more potent pRb inhibition in OVCAR3 than in KYSE520” value (“times more potent pRb inhibition” below) in experiment [1] is approximately 21 times. The results for the IC50 in experiment [2] and in experiment [3] were 0.176 µM and 0.0529 µM, respectively. Moreover, the Dmax in experiment [4] is 35 to 90%.
For `O=C1CCC(N2C(=O)c3cccc(NCCOCCOCCOCCNS(=O)(=O)N4CCC(Nc5ncc6ccc(=O)n(C7CCCC7)c6n5)CC4)c3C2=O)C(=O)N1` (centres unmarked) [Compound 21, 4-((8-cyclopentyl-7-oxo-7,8-dihydropyrido[2,3-d]pyrimidin-2-yl)amino)-N-(2-(2-(2-(2-((2-(2,6-dioxopiperidin-3-yl)-1,3-dioxoisoindolin-4-yl)amino)ethoxy)ethoxy)ethoxy)ethyl) piperidine-1-sulfonamide], the “times more potent pRb inhibition” value in experiment [1] is given as approximately 11 times. In addition, the 50% inhibitory concentration (IC50) (as a rule, the concentration needed to halve the response being measured) in experiment [2] amounted to 1.17 µM; in experiment [3] it was 0.422 µM.
On to `O=C1CCC(N2Cc3cc(N4CCC(CN5CCC(c6cccc(S(=O)(=O)N7CCC(Nc8ncc9ccc(=O)n(C%10CCCC%10)c9n8)CC7)c6)CC5)CC4)ccc3C2=O)C(=O)N1` (centres unmarked) [Compound 34, 3-(5-(4-((4-(3-((4-((8-cyclopentyl-7-oxo-7,8-dihydropyrido[2,3-d]pyrimidin-2-yl)amino)-piperidin-1-yl)sulfonyl)phenyl)piperidin-1-yl)-methyl)piperidin-1-yl)-1-oxoisoindolin-2-yl)-piperidine-2,6-dione], for which the “times more potent pRb inhibition” value in experiment [1] is given as approximately 10.5 times. Also, the IC50 in experiment [2] was 0.086 µM; in experiment [3], 0.0503 µM. Moreover, the Dmax in experiment [4] fell in the range of 35 to 90%.
Consider `Cn1c(=O)n(C2CCC(=O)NC2=O)c2cccc(CNCCOc3cccc(S(=O)(=O)N4CCC(Nc5ncc6ccc(=O)n(C7CCCC7)c6n5)CC4)c3)c21` (centres unmarked) [Compound 41, 3-(4-(((2-(3-((4-((8-cyclopentyl-7-oxo-7,8-dihydropyrido[2,3-d]pyrimidin-2-yl)amino)-piperidin-1-yl)sulfonyl)phenoxy)ethyl)amino)-methyl)-3-methyl-2-oxo-2,3-dihydro-1H-benzo[d]imidazol-1-yl)piperidine-2,6-dione], for which the “times more potent pRb inhibition” value in experiment [1] is listed as approximately 20.5 times. Moreover, the IC50 was found to be 0.214 µM in experiment [2] and 0.267 µM in experiment [3].
Regarding `O=C1CCC(N2Cc3cc(CNCCOc4cccc(S(=O)(=O)N5CCC(Nc6ncc7ccc(=O)n(C8CCCC8)c7n6)CC5)c4)ccc3C2=O)C(=O)N1` (centres unmarked) [Compound 68, 3-(5-(((2-(3-((4-((8-cyclopentyl-7-oxo-7,8-dihydropyrido[2,3-d]pyrimidin-2-yl)amino)-piperidin-1-yl)sulfonyl)phenoxy)ethyl)amino)-methyl)-1-oxoisoindolin-2-yl)piperidine-2,6-dione], the IC50 in experiment [2] turned out to be 0.197 µM; in experiment [3], 0.0294 µM. Besides, the Dmax in experiment [4] was 35 to 90%.
On the same counts, the results for `O=C1CCC(N2C(=O)c3cc(F)c(N4CCN(Cc5cccc(S(=O)(=O)N6CC[C@H](Nc7ncc8ccc(=O)n(C9CCCC9)c8n7)[C@@H](F)C6)c5)CC4)cc3C2=O)C(=O)N1` (stereo partly drawn) [Compound 65, 5-(4-(3-(((3S,4S)-4-((8-cyclopentyl-7-oxo-7,8-dihydropyrido[2,3-d]pyrimidin-2-yl)amino)-3-fluoropiperidin-1-yl)sulfonyl)benzyl)piperazin-1-yl)-2-(2,6-dioxopiperidin-3-yl)-6-fluoro-isoindoline-1,3-dione] are 1.75 µM, 6.44 µM and 35 to 90%.
The like results for `CC1(O)CCCC1n1c(=O)ccc2cnc(NC3CCN(S(=O)(=O)c4cccc(CN5CCN(c6ccc7c(c6)CN(C6CCC(=O)NC6=O)C7=O)CC5)c4)CC3)nc21` (centres unmarked) [Compound 55, 3-(5-(4-(3-((4-((8-(2-hydroxy-2-methyl-cyclopentyl)-7-oxo-7,8-dihydropyrido[2,3-d]-pyrimidin-2-yl)amino)piperidin-1-yl)sulfonyl)-benzyl)piperazin-1-yl)-1-oxoisoindolin-2-yl)-piperidine-2,6-dione] were, in that order, 0.736 µM, 0.07 µM and 35 to 90%.
